Laboratory results reported in US11390660B2, “Uterine cancer treatments” (Immatics Biotechnologies GmbH, priority 2016, dated 2022).

Legend:
CD8+ T cells = experiment: In vitro T-cell priming assay with aAPCs loaded with peptide/MHC complexes and anti-CD28 antibody, pMHC multimer readout; type: cell-based, human; conditions: in vitro immunogenicity, HLA-A*02 restricted peptides, positive wells among evaluable (Table 10B)
From the text: In order to obtain information regarding the immunogenicity of the TUMAPs of the present invention, the inventors performed investigations using an in vitro T-cell priming assay based on repeated stimulations of CD8+ T cells with artificial antigen presenting cells (aAPCs) loaded with peptide/MHC complexes and anti-CD28 antibody.
In order to perform in vitro stimulations by artificial antigen presenting cells loaded with peptide-MHC complex (pMHC) and anti-CD28 antibody, the inventors first isolated CD8+ T cells from fresh HLA-A*02 leukapheresis products via positive selection using CD8 microbeads (Miltenyi Biotec, Bergisch-Gladbach, Germany) of healthy donors obtained from the University clinics Mannheim, Germany, after informed consent.
PBMCs and isolated CD8+ lymphocytes were incubated in T-cell medium (TCM) until use consisting of RPMI-Glutamax (Invitrogen, Karlsruhe, Germany) supplemented with 10% heat inactivated human AB serum (PAN-Biotech, Aidenbach, Germany), 100 U/ml Penicillin/100 μg/ml Streptomycin (Cambrex, Cologne, Germany), 1 mM sodium pyruvate (CC Pro, Oberdorla, Germany), 20 μg/ml Gentamycin (Cambrex). 2.5 ng/ml IL-7 (PromoCell, Heidelberg, Germany) and 10 U/ml IL-2 (Novartis Pharma, Nürnberg, Germany) were also added to the TCM at this step.
Generation of pMHC/anti-CD28 coated beads, T-cell stimulations and readout was performed in a highly defined in vitro system using four different pMHC molecules per stimulation condition and 8 different pMHC molecules per readout condition.
The purified co-stimulatory mouse IgG2a anti human CD28 Ab 9.3 (Jung et al., 1987) was chemically biotinylated using Sulfo-N-hydroxysuccinimidobiotin as recommended by the manufacturer (Perbio, Bonn, Germany). Beads used were 5.6 μm diameter streptavidin coated polystyrene particles (Bangs Laboratories, Illinois, USA).
800.000 beads/200 μI were coated in 96-well plates in the presence of 4×12.5 ng different biotin-pMHC, washed and 600 ng biotin anti-CD28 were added subsequently in a volume of 200 μI. Stimulations were initiated in 96-well plates by co-incubating 1×10^6 CD8+ T cells with 2×10^5 washed coated beads in 200 μI TCM supplemented with 5 ng/ml IL-12 (PromoCell) for 3 days at 37° C. Half of the medium was then exchanged by fresh TCM supplemented with 80 U/ml IL-2 and incubating was continued for 4 days at 37° C. This stimulation cycle was performed for a total of three times. For the pMHC multimer readout using 8 different pMHC molecules per condition, a two-dimensional combinatorial coding approach was used as previously described (Andersen et al., 2012) with minor modifications encompassing coupling to 5 different fluorochromes. Finally, multimeric analyses were performed by staining the cells with Live/dead near IR dye (Invitrogen, Karlsruhe, Germany), CD8-FITC antibody clone SK1 (BD, Heidelberg, Germany) and fluorescent pMHC multimers. For analysis, a BD LSRII SORP cytometer equipped with appropriate lasers and filters was used. Peptide specific cells were calculated as percentage of total CD8+ cells. Evaluation of multimeric analysis was done using the FlowJo software (Tree Star, Oregon, USA). In vitro priming of specific multimer+ CD8+ lymphocytes was detected by comparing to negative control stimulations.

HLA-A*02:01 = HLA-A*02:01 (Homo sapiens, UniProt P04439, D140Y/D185E/D98H/E176V/E277Q/G131W/G231S/I119V/I121R/I166T/I218V/L300P/L318F/N151K/N90K/P208A/P217A/Q86G/Q94H/R138H/R169H/T345S); experiment: MHC binding assay: UV-ligand exchange with β2m ELISA; conditions: peptide exchange yield, binding to HLA-A*02:01
From the text: Candidate peptides for T cell based therapies according to the present invention were further tested for their MHC binding capacity (affinity). The individual peptide-MHC complexes were produced by UV-ligand exchange, where a UV-sensitive peptide is cleaved upon UV-irradiation, and exchanged with the peptide of interest as analyzed. Only peptide candidates that can effectively bind and stabilize the peptide-receptive MHC molecules prevent dissociation of the MHC complexes. To determine the yield of the exchange reaction, an ELISA was performed based on the detection of the light chain (β2m) of stabilized MHC complexes. The assay was performed as generally described in Rodenko et al. (Rodenko et al., 2006).
96 well MAXISorp plates (NUNC) were coated over night with 2 ug/ml streptavidin in PBS at room temperature, washed 4× and blocked for 1 h at 37° C. in 2% BSA containing blocking buffer. Refolded HLA-A*02:01/MLA-001 monomers served as standards, covering the range of 15-500 ng/ml. Peptide-MHC monomers of the UV-exchange reaction were diluted 100 fold in blocking buffer. Samples were incubated for 1 h at 37° C., washed four times, incubated with 2 ug/ml HRP conjugated anti-β2m for 1 h at 37° C., washed again and detected with TMB solution that is stopped with […]. Absorption was measured at 450 nm. Candidate peptides that show a high exchange yield (preferably higher than 50%, most preferred higher than 75%) are generally preferred for a generation and production of antibodies or fragments thereof, and/or T cell receptors or fragments thereof, as they show sufficient avidity to the MHC molecules and prevent dissociation of the MHC complexes.

Substance | Peptide exchange (HLA-A*02:01) | Wells positive [%] (CD8+ T cells)
7 (SILSLLIKL; listed as Homo sapiens) [compound 7] | ++ (>20% = ++) | ++ (20%-49% = ++)
9 (SLYPGTETM; listed as Homo sapiens) [compound 9] | +++ (>50 = +++) | + (<20% = +)
10 (AILDVVVNL; listed as Homo sapiens) [compound 10] | ++++ (> 75% = ++++) | + (<20% = +)

Second part, led by results:

Peptide exchange (HLA-A*02:01) | Substance | Wells positive [%] (CD8+ T cells)
++++ (> 75% = ++++) | 14 (FLVDSLISA; listed as Homo sapiens) [compound 14] | ++ (20%-49% = ++)
++++ (> 75% = ++++) | 20 (ALLGFVTDL; listed as Homo sapiens) [compound 20] | ++ (20%-49% = ++)
++++ (> 75% = ++++) | 23 (GLGPNLVGV; listed as Homo sapiens) [compound 23] | ++++ (> = 70% = ++++)
